{"source": "the supplement of paper PMC10307832", "test_in_all_cases": "relative viability (nuclei count vs DMSO), 5 days (fraction); higher = more cells survive", "key": {"AZ3146 + Olaparib": {"compound": "CN1CCC(CC1)OC2=CC(=C(C=C2)NC3=NC=C4C(=N3)N(C(=O)N4C)C5CCCC5)OC [AZ3146] + O=C(c1cc(Cc2n[nH]c(=O)c3ccccc23)ccc1F)N1CCN(C(=O)C2CC2)CC1 [Olaparib] (partner 8 µM)", "summary_of_the_method": "(§1)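 Lung cancer cell lines were seeded in 1536-well plates and dosed by pin tool the next day, with either a single drug or a fixed anchor-drug dose combined with five library-drug doses (not always all listed) spaced in √10 steps. Five days later, one step fixed the cells and stained their nuclei (final 0.05% Triton X-100, 1% formaldehyde, 1 ug/ml Hoechst), and nuclei were counted on 4× images. Relative viability is the nuclei count in treated wells divided by the count in vehicle wells, and each value is the median of duplicate plates.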"}, "GSK-J4 + Dasatinib": {"compound": "CCOC(=O)CCNc1cc(N2CCc3ccccc3CC2)nc(-c2ccccn2)n1 [GSK-J4] + Cc1nc(Nc2ncc(C(=O)Nc3c(C)cccc3Cl)s2)cc(N2CCN(CCO)CC2)n1 [Dasatinib] (partner 0.075 µM)", "summary_of_the_method": "as §1"}, "AZ3146 + Pictilisib": {"compound": "CN1CCC(CC1)OC2=CC(=C(C=C2)NC3=NC=C4C(=N3)N(C(=O)N4C)C5CCCC5)OC [AZ3146] + CS(=O)(=O)N1CCN(Cc2cc3nc(-c4cccc5[nH]ncc45)nc(N4CCOCC4)c3s2)CC1 [Pictilisib] (partner 1 µM)", "summary_of_the_method": "as §1"}, "GSK-J4 + Olaparib": {"compound": "CCOC(=O)CCNc1cc(N2CCc3ccccc3CC2)nc(-c2ccccn2)n1 [GSK-J4] + O=C(c1cc(Cc2n[nH]c(=O)c3ccccc23)ccc1F)N1CCN(C(=O)C2CC2)CC1 [Olaparib] (partner 8 µM)", "summary_of_the_method": "as §1"}}}
{"cell line": "UMC-11", "values": [{"measurement": "relative viability", "setting": "AZ3146 + Olaparib; first compound 0.08 µM", "value": 0.396}, {"measurement": "relative viability", "setting": "AZ3146 + Olaparib; first compound 0.253 µM", "value": 0.405}, {"measurement": "relative viability", "setting": "AZ3146 + Olaparib; first compound 0.8 µM", "value": 0.36}, {"measurement": "relative viability", "setting": "AZ3146 + Olaparib; first compound 2.53 µM", "value": 0.326}, {"measurement": "relative viability", "setting": "AZ3146 + Olaparib; first compound 8 µM", "value": 0.279}, {"measurement": "relative viability", "setting": "GSK-J4 + Dasatinib; first compound 0.5 µM", "value": 0.43}, {"measurement": "relative viability", "setting": "GSK-J4 + Dasatinib; first compound 5 µM", "value": 0.43}, {"measurement": "relative viability", "setting": "GSK-J4 + Dasatinib; first compound 15.81 µM", "value": 0.392}, {"measurement": "relative viability", "setting": "GSK-J4 + Dasatinib; first compound 50 µM", "value": 0.231}, {"measurement": "relative viability", "setting": "AZ3146 + Pictilisib; first compound 0.08 µM", "value": 0.698}, {"measurement": "relative viability", "setting": "AZ3146 + Pictilisib; first compound 0.253 µM", "value": 0.99}, {"measurement": "relative viability", "setting": "AZ3146 + Pictilisib; first compound 0.8 µM", "value": 0.706}, {"measurement": "relative viability", "setting": "AZ3146 + Pictilisib; first compound 2.53 µM", "value": 0.802}, {"measurement": "relative viability", "setting": "AZ3146 + Pictilisib; first compound 8 µM", "value": 0.513}, {"measurement": "relative viability", "setting": "GSK-J4 + Olaparib; first compound 0.5 µM", "value": 0.364}, {"measurement": "relative viability", "setting": "GSK-J4 + Olaparib; first compound 1.581 µM", "value": 0.324}, {"measurement": "relative viability", "setting": "GSK-J4 + Olaparib; first compound 5 µM", "value": 0.299}, {"measurement": "relative viability", "setting": "GSK-J4 + Olaparib; first compound 15.81 µM", "value": 0.353}, {"measurement": "relative viability", "setting": "GSK-J4 + Olaparib; first compound 50 µM", "value": 0.272}]}
